How the values were obtained:
Septoria tritici = assay: In vivo preventive test on Septoria tritici (leaf spot on wheat); details: Zymoseptoria tritici, in Triticum aestivum; 500 ppm of active ingredient; preventive spray on wheat; evaluated 19 days after inoculation; read-out: efficacy
Experimental: Example: In Vivo Preventive Test on Septoria tritici (Leaf Spot on Wheat)
• Solvent: 5% by volume of Dimethyl sulfoxide • 10% by volume of Acetone • Emulsifier: 1 μl of Tween® 80 per mg of active ingredient
The active ingredients were made soluble and homogenized in a mixture of Dimethyl sulfoxide/Acetone//Tween®80 and then diluted in water to the desired concentration.
The young plants of wheat were treated by spraying the active ingredient prepared as described above. Control plants were treated only with an aqueous solution of Acetone/Dimethyl sulfoxide/Tween®80.
After 24 hours, the plants were contaminated by spraying the leaves with an aqueous suspension of Septoria tritici spores. The contaminated wheat plants were incubated for 72 hours at 17° C. and at 100% relative humidity and then for 15 days at 20° C. and at 90% relative humidity.
The test was evaluated 19 days after the inoculation. 0% means an efficacy which corresponds to that of the control plants while an efficacy of 100% means that no disease was observed.

Botrytis cinerea = assay: In vivo preventive test on Botrytis cinerea (grey mould); details: 500 ppm of active ingredient, preventive spray on gherkin or cabbage, evaluated 4 to 5 days after inoculation, read-out: efficacy
[1] = Measurement of LogP values by HPLC on reversed phase columns (EEC directive 79/831 Annex V.A8), methods [a], [b], [c]; assay type: physicochemical; details: HPLC on reversed phase column, method [a]; read-out: Log P
Method in brief: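 Log P determined by reversed-phase HPLC following EEC directive 79/831 Annex V.A8. Multiple values within one method are listed joined by "+". Lambda-max taken from UV spectra over 200–400 nm at chromatographic peak maxima.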

[2] = system: Colletotrichum lindemuthianum; assay: Colletotrichum lindemuthianum in vitro cell test; assay type: cell-based; details: 144 h, 20 ppm of active ingredient, liquid culture, 6 days incubation, read-out: efficacy (inhibition of fungal growth)
Alternaria brassicae = assay: In vivo preventive test on Alternaria brassicae (leaf spot on radish or cabbage); details: 144 h, 500 ppm of active ingredient, preventive spray on radish or cabbage, evaluated 6 days after inoculation, read-out: efficacy
Sphaerotheca fuliginea = assay: In vivo preventive test on Sphaerotheca fuliginea (powdery mildew on cucurbits); details: Podosphaera fuliginea, 192 h; 500 ppm of active ingredient; preventive spray on gherkin; evaluated 8 days after inoculation; read-out: efficacy
[3] = system: Colletotrichum lindemuthianum; assay: In vivo preventive test on Colletotrichum lindemuthianum (leaf spot on bean); details: 168 h, 500 ppm of active ingredient, preventive spray on bean, evaluated 7 days after inoculation, read-out: efficacy

Row | Compound | pest or weed control at 500 ppm (Septoria tritici) | pest or weed control at 500 ppm (Botrytis cinerea) | chromatographic logP [1] | inhibition at 20 ppm [2] | pest or weed control at 500 ppm (Alternaria brassicae) | pest or weed control at 500 ppm (Sphaerotheca fuliginea) | pest or weed control at 500 ppm [3]
1 | COc1cccc(Oc2nnc(Cl)cc2C2=NOCC(Cc3ccc(C)cc3C)N2)c1F (racemic) [I-005, rac-3-[6-chloro-3-(2-fluoro-3-methoxy-phenoxy)pyridazin-4-yl]-5-[(2,4-dimethylphenyl)methyl]-5,6-dihydro-4H-1,2,4-oxadiazine] | 90 to 100% | 90 to 100% | 3.91 | 90 to 100% | 90 to 100% | 90 to 100% | 90 to 100%
2 | C=C(OCC)c1cc(C2=NOCC(Cc3ccc(C)cc3C)N2)c(Oc2cccc(C(F)(F)F)c2)nn1 (racemic) [I-009, rac-5-[(2,4-dimethylphenyl)methyl]-3-[6-(1-ethoxyvinyl)-3-[3-(trifluoro-methyl)phenoxy]pyridazin-4-yl]-5,6-dihydro-4H-1,2,4-oxadiazine] | 90 to 100% | 90 to 100% | 4.98 | 90 to 100% | 90 to 100% | 90 to 100% | 90 to 100%
3 | COCCOc1c(Cl)nnc(Oc2cccc(C(F)(F)F)c2)c1C1=NOCC(Cc2ccc(C)cc2C)N1 (racemic) [I-072, rac-3-[6-chloro-5-(2-methoxyethoxy)-3-[3-(trifluoro-methyl)phenoxy]pyridazin-4-yl]-5-[(2,4-dimethylphenyl)methyl]-5,6-dihydro-4H-1,2,4-oxadiazine] | 90 to 100% | 90 to 100% | 4.18 | 90 to 100% | 90 to 100% | 90 to 100% | 90 to 100%
4 | FC(F)(F)c1cccc(Oc2nnc(Cl)cc2C2=NOCC(Cc3ccc(Br)cc3Cl)N2)c1 (racemic) [I-016, rac-5-[(4-bromo-2-chloro-phenyl)methyl]-3-[6-chloro-3-[3-(trifluoromethyl)phenoxy]pyridazin-4-yl]-5,6-dihydro-4H-1,2,4-oxadiazine] | 90 to 100% | 90 to 100% | 4.61 | 90 to 100% | 90 to 100% | 90 to 100% | 90 to 100%
